Here are results for 16 compounds from patent US11472803B2, “7-substituted 1-aryl-naphthyridine-3-carboxylic acid amides and use thereof” (Bayer Aktiengesellschaft, priority 2016, dated 2022).

For experiment [1], the target named is T1, human M2 receptor (Homo sapiens, UniProt P08172).
T1 construct: expressed in transfected cells; host or cells: CHO-DUKX (CHO-DUKX-M2-GIRK)
T1 sequence (P08172 1-466): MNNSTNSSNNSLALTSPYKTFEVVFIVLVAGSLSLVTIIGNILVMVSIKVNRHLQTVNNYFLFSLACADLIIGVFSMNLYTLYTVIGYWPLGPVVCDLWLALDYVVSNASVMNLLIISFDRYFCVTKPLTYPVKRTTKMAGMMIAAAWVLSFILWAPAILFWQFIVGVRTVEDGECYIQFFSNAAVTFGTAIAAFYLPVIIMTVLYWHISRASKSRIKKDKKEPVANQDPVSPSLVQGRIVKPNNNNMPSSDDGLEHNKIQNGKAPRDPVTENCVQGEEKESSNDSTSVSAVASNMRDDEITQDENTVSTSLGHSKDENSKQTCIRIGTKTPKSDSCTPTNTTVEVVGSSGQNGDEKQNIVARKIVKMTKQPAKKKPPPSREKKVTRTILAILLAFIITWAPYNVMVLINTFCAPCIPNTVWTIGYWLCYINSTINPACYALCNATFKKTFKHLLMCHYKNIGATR
In words: Functional M2-GIRK1/4 activation test: allosteric potency (EC50) and efficiency at EC20 acetylcholine. Type of experiment: cell-based. As to conditions: CHO-DUKX-M2-GIRK cells; for EC50: voltage-sensitive dye, acetylcholine at EC20, in some cases mean of two or more determinations; for Emax / Efficiency: boosting of the acetylcholine effect at EC20 acetylcholine concentration. Put shortly: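 Positive allosteric modulation measured as boosting of an EC20 acetylcholine response: hyperpolarization via GIRK1/4 in CHO-DUKX-M2-GIRK cells, monitored by membrane-potential dye fluorescence over 60 s after agonist, compound preadded. Hill-function fit gives EC50 and efficiency.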

Experiment [2] deals with T1, human M2 receptor. Kind of experiment: Functional M2-GIRK1/4 activation test: positive cooperativity (α factor), shift of acetylcholine dose-response curve. Type of experiment: cell-based. As to conditions: Allosteric EC50 shift of acetylcholine 8-point dose-response curve; CHO-DUKX-M2-GIRK cells; α>1 = positive cooperativity. From the text: The binding of orthosteric agonists (endogenous ligand: acetylcholine) to the M2 receptor leads to receptor activation or a change in conformation of the receptor in the manner of a shift in equilibrium in favour of the active receptor conformation.
The agonist-induced change in conformation of the M2 receptor results in a Gαi protein activation. […] Under physiological conditions, the result is then a selective efflux of potassium from the cell along the electrochemical gradient. […] The extent of hyperpolarization can therefore be regarded as a measure of the activation of the M2 receptor.
The test cell used is a recombinant CHO-DUKX cell line which has been stably transfected with cDNA coding for the human M2 receptor and with cDNA coding for both GIRK1/4 subunits (CHO-DUKX-M2-GIRK). The transmembrane potential, or the relative changes in the transmembrane potential as a function of substance addition or M2 activation, is determined by means of a voltage-sensitive dye (FLIPR Membrane Potential Assay Kit Blue, Molecular Devices #R8034) and the measurement of cell fluorescence using a proprietary fluorescence imaging instrument.
In accordance with the desired test concentrations, the substances were pre-diluted in loading buffer (see above).
The sowing medium consisted of MEM alpha medium (supplemented with 5% PCS, 2% Glutamax, no genticin).
For the particular measurement, the medium was removed and the cells were laden with the volt-age-sensitive dye for at least 6 min at room temperature (30 μl of loading buffer per 384-well). This was followed, in a first measurement, by the determination of the resting transmembrane potential for a period of 5 sec in 1 sec increments. Thereafter, 10 μl in each case of the test substances diluted in loading buffer are added, followed by a second measurement to determine the transmembrane potential for a period of 50 sec in 1 sec increments.
Finally, the cells are admixed with 10 μl of agonist solution (acetylcholine dissolved in loading buffer). In contrast to the EC50 determination of the test substances (see B-1.1), however, this is not done using one acetylcholine concentration; instead, every concentration of the test substance is combined with an acetylcholine 8-point dose-response curve. […] The M2-mediated GIRK1/4 activation or hyperpolarization is then monitored in a third measurement over a period of 60 sec in 1 sec increments. The shift in the acetylcholine dose-response curve in the presence of increasing concentrations of the test substance is analysed and quantified by means of GraphPad PRISM (Allosteric EC50 shift). […] Positive cooperativity is the hallmark of a positive allosteric modulator. […] The greater the magnitude of the α value, the greater the extent of cooperativity between orthosteric and allosteric.

With `CC(NC(=O)c1cn(-c2c(F)cc(F)cc2F)c2nc(N3CCC(O)(CO)CC3)c(F)cc2c1=O)C(F)(F)C(F)(F)F` (single isomer, unassigned) [Example 186, 6-Fluoro-7-[4-hydroxy-4-(hydroxymethyl)piperidin-1-yl]-4-oxo-N-[3,3,4,4,4-pentafluorobutan-2-yl]-1-(2,4,6-trifluorophenyl)-1,4-dihydro-1,8-naphthyridine-3-carboxamide], on human M2 receptor [1], the EC50 (commonly the midpoint of the concentration-response curve) stood at 5.8 nM and the Emax – broadly, the size of the effect at its maximum, as opposed to the concentration needed – is 87%. Also, the “Cooperativity (alpha factor)” value at human M2 receptor [2] was found to be 20.
`CCC(COC(F)(F)F)NC(=O)c1cn(-c2c(F)cc(F)cc2F)c2nc(N3C[C@@H](O)[C@H](O)C3)c(F)cc2c1=O` (single isomer, unassigned) [Example 32]: at human M2 receptor [1], the EC50 amounted to 4.3 nM and the Efficiency came out at 100%. At human M2 receptor [2], the “Cooperativity (alpha factor)” value worked out at 54.
`CC(C)(CC(F)(F)F)NC(=O)c1cn(-c2c(F)cccc2F)c2nc(N3C[C@@H](O)[C@H](O)C3)c(F)cc2c1=O` [Example 1, 1-(2,6-Difluorophenyl)-7-[(3R,4R)-3,4-dihydroxypyrrolidin-1-yl]-6-fluoro-4-oxo-N-(4,4,4-tri-fluoro-2-methylbutan-2-yl)-1,4-dihydro-1,8-naphthyridine-3-carboxamide]: on human M2 receptor [1], the EC50 amounted to 21 nM and the Emax is 92%. For the same compound, the “Cooperativity (alpha factor)” value at human M2 receptor [2] was determined as 35.
The like results for `CC(C)[C@H](C)NC(=O)c1cn(-c2c(F)cc(F)cc2F)c2nc(N3C[C@@H](O)[C@H](O)C3)c(F)cc2c1=O` [Example 16, 7-[(3R,4R)-3,4-dihydroxypyrrolidin-1-yl]-6-fluoro-N-[(2S)-3-methylbutan-2-yl]-4-oxo-1-(2,4,6-trifluorophenyl)-1,4-dihydro-1,8-naphthyridine-3-carboxamide] were, in that order, 8.45 nM, 99% and 42.
Turning to `O=C(NC(C1CC1)(C1CC1)C(F)(F)F)c1cn(-c2c(F)cc(F)cc2F)c2nc(N3C[C@@H](O)[C@H](O)C3)c(F)cc2c1=O` [Example 203, N-(1,1-dicyclopropyl-2,2,2-trifluoroethyl)-7-[(3R,4R)-3,4-dihydroxypyrrolidin-1-yl]-6-fluoro-4-oxo-1-(2,4,6-trifluorophenyl)-1,4-dihydro-1,8-naphthyridine-3-carboxamide], at human M2 receptor [1], it took 5 nM to reach a half-maximal effect (EC50) and the Emax is 100%. Further, at human M2 receptor [2], the “Cooperativity (alpha factor)” value is 29.
At human M2 receptor [1], `O=C(NC(C1CC1)(C1CC1)C(F)(F)F)c1cn(-c2c(F)cc(F)cc2F)c2nc(N3CC(CO)(CO)C3)c(F)cc2c1=O` [Example 210, 7-[3,3-bis(hydroxymethyl)azetidin-1-yl]-N-(1,1-dicyclopropyl-2,2,2-trifluoroethyl)-6-fluoro-4-oxo-1-(2,4,6-trifluorophenyl)-1,4-dihydro-1,8-naphthyridine-3-carboxamide] returned an EC50 of 2.1 nM and an Emax of 100%. In addition, the “Cooperativity (alpha factor)” value at human M2 receptor [2] amounted to 26.
As to `CC(C)(C)C(C)(C)NC(=O)c1cn(-c2c(F)cc(F)cc2F)c2nc(N3C[C@@H](O)[C@H](O)C3)c(F)cc2c1=O` [Example 165, 7-[(3R,4R)-3,4-Dihydroxypyrrolidin-1-yl]-6-fluoro-4-oxo-1-(2,4,6-trifluorophenyl)-N-(2,3,3-trimethylbutan-2-yl)-1,4-dihydro-1,8-naphthyridine-3-carboxamide], on human M2 receptor [1], it took 2.4 nM to reach a half-maximal effect (EC50) and the Emax was determined as 100%. For the same compound, the “Cooperativity (alpha factor)” value at human M2 receptor [2] came out at 48.
Take `CC(C)(NC(=O)c1cn(-c2c(F)cc(F)cc2F)c2nc(N3CC(CO)(CO)C3)c(F)cc2c1=O)C(F)(F)C(F)(F)F` [Example 166, 7-[3,3-Bis(hydroxymethyl)azetidin-1-yl]-6-fluoro-4-oxo-N-(3,3,4,4,4-pentafluoro-2-methyl-butan-2-yl)-1-(2,4,6-trifluorophenyl)-1,4-dihydro-1,8-naphthyridine-3-carboxamide]: at human M2 receptor [1], the EC50 stood at 4.4 nM and the Emax is 100%. Besides, the “Cooperativity (alpha factor)” value at human M2 receptor [2] is listed as 31.
The like results for `O=C(NC(C1CC1)(C1CC1)C(F)(F)C(F)(F)F)c1cn(-c2c(F)cc(F)cc2F)c2nc(N3C[C@@H](O)[C@H](O)C3)c(F)cc2c1=O` [Example 208, N-(1,1-dicyclopropyl-2,2,3,3,3-pentafluoropropyl)-7-[(3R,4R)-3,4-dihydroxypyrrolidin-1-yl]-6-fluoro-4-oxo-1-(2,4,6-trifluorophenyl)-1,4-dihydro-1,8-naphthyridine-3-carboxamide] were, in that order, 1.8 nM, 100% and 27.
Consider `O=C(N[C@@H](C1CC1)C(F)(F)F)c1cn(-c2c(F)cc(F)cc2Cl)c2nc(N3CC(CO)(CO)C3)c(F)cc2c1=O` (single isomer, unassigned) [Example 71], for which, at human M2 receptor [1], the EC50 is 4.2 nM and the Efficiency amounted to 94%. The “Cooperativity (alpha factor)” value on human M2 receptor [2] stood at 26.
For the compound `CC(C)[C@@H](C)NC(=O)c1cn(-c2c(F)cc(F)cc2F)c2nc(N3C[C@@H](O)[C@H](O)C3)c(F)cc2c1=O` [Example 15, 7-[(3R,4R)-3,4-dihydroxypyrrolidin-1-yl]-6-fluoro-N-[(2R)-3-methylbutan-2-yl]-4-oxo-1-(2,4,6-trifluorophenyl)-1,4-dihydro-1,8-naphthyridine-3-carboxamide], at human M2 receptor [1], the EC50 amounted to 9.15 nM and the Emax was found to be 96%. Further, the “Cooperativity (alpha factor)” value at human M2 receptor [2] turned out to be 41.
As to `CC(NC(=O)c1cn(-c2c(F)cc(F)cc2F)c2nc(N3C[C@@H](O)[C@H](O)C3)c(F)cc2c1=O)C(F)(F)C(F)(F)F` (single isomer, unassigned) [Example 10], on human M2 receptor [2], the “Cooperativity (alpha factor)” value is 70.
For the compound `CC(NC(=O)c1cn(-c2c(F)cc(F)cc2F)c2nc(N3C[C@@H](O)[C@H](O)C3)c(F)cc2c1=O)C(F)(F)C(F)(F)F` (single isomer, unassigned) [Example 9], at human M2 receptor [1], the Emax turned out to be 91%. Also, the “Cooperativity (alpha factor)” value on human M2 receptor [2] is listed as 39.
As to `CC(C)(NC(=O)c1cn(-c2c(F)cc(F)cc2F)c2nc(N3C[C@@H](O)[C@H](O)C3)c(F)cc2c1=O)C1CC1` [Example 25, N-(2-cyclopropylpropan-2-yl)-7-[(3R,4R)-3,4-dihydroxypyrrolidin-1-yl]-6-fluoro-4-oxo-1-(2,4,6-trifluorophenyl)-1,4-dihydro-1,8-naphthyridine-3-carboxamide], on human M2 receptor [1], a half-maximal response (EC50) required 4.05 nM and the Emax is 95%. For the same compound, the “Cooperativity (alpha factor)” value on human M2 receptor [2] is 45.
Turning to `CC(C)(NC(=O)c1cn(-c2c(F)cc(F)cc2F)c2nc(N3C[C@@H](O)[C@H](O)C3)c(Br)cc2c1=O)C(F)(F)F` [Example 159, 6-Bromo-7-[(3R,4R)-3,4-dihydroxypyrrolidin-1-yl]-4-oxo-N-(1,1,1-trifluoro-2-methylpropan-2-yl)-1-(2,4,6-trifluorophenyl)-1,4-dihydro-1,8-naphthyridine-3-carboxamide], on human M2 receptor [1], it took 7.1 nM to reach a half-maximal effect (EC50) and the Emax stood at 100%. In addition, the “Cooperativity (alpha factor)” value at human M2 receptor [2] stood at 45.
In the case of `C[C@H](NC(=O)c1cn(-c2c(F)cc(F)cc2Cl)c2nc(N3C[C@@H](O)[C@H](O)C3)c(F)cc2c1=O)C(F)(F)F` (single isomer, unassigned) [Example 226], on human M2 receptor [1], the EC50 stood at 6.7 nM and the Efficiency worked out at 93%. Besides, the “Cooperativity (alpha factor)” value on human M2 receptor [2] was found to be 31.
